Experimental data: US20220193072A1, “METHODS OF TREATING BREAST CANCER WITH TETRAHYDRONAPHTHALENE DERIVATIVES AS ESTROGEN RECEPTOR DEGRADER” (Arvinas Operations, Inc., priority 2020, published 2022)
Where “and” joins values, the source holds several entries; their conditions need not be identical. Identical values can stand only once. Like-named read-outs stand apart in the source and are kept apart here.

Experiments:
MCF7 cells = experiment: Live-cell imaging growth studies and EC50 for growth inhibition, MCF7; format: cell-based; conditions: Homo sapiens, read-out: Approximate Half-maximal Effective Concentration (EC50) for growth inhibition
Method: (§1) MCF7, T47D, T47D ESR1 Y537S or T47D ESR1 D538G cells were seeded at 2×10^5 density per well in 6-well tissue culture-treated plates in DMEM/F12/10% FBS (2 mL total volume). […] The plate was then placed in the Incucyte® S3 Live-Cell Analysis System and images were acquired every 4 hours for a total of 5 days (120 hours). Data were analyzed using the Incucyte® Software v2020C which quantified cell surface area coverage as confluence values. Relative growth was calculated for all timepoints for all growth conditions relative to the confluence value observed for the control at 120 hours. Graphing and statistical analyses were performed using Graphpad Prism (GraphPad Software).

T47D cells = experiment: Live-cell imaging growth studies and EC50 for growth inhibition, T47D; format: cell-based; conditions: Homo sapiens, read-out: Approximate Half-maximal Effective Concentration (EC50) for growth inhibition
Method: as §1

ERα = target: T1, ERα (Homo sapiens, UniProt P03372); experiment: In vivo ERα degradation in MCF7 xenograft tumors (immunoblot); set-up: species or system NOD/SCID mice; conditions: for % ERα ↓: MCF7/estradiol model
T1 construct: robustly degrades ER in ER-positive breast cancer cell lines; endogenous in cells; host or cells: MCF7, T47D (cell culture); MCF7 and tamoxifen-resistant MCF7 xenograft tumours in mice
T1 sequence (P03372 1-595): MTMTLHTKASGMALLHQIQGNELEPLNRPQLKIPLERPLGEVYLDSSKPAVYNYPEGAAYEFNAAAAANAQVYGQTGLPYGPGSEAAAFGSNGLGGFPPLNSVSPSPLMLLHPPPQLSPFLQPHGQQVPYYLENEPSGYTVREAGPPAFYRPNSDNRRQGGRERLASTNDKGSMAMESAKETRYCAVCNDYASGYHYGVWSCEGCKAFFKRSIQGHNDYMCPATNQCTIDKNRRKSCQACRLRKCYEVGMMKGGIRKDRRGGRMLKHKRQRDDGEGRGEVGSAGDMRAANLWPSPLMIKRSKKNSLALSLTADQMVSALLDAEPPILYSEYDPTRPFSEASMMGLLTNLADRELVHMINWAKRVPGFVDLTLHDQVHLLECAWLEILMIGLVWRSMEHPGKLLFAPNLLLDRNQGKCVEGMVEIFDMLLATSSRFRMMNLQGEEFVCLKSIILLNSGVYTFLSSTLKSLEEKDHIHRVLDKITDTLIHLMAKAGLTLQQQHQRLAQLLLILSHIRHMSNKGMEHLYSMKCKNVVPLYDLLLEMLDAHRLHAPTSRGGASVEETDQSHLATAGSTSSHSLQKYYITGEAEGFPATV
Method: Approximately 18 hours after the final administration, mice were sacrificed, and MCF7 xenografts were harvested and lysed to determine ER levels by immunoblotting. […] Diet was supplemented with peanut butter to help maintain body weights.
Species: NOD/SCID female mice (Charles River, 6-7 weeks old upon arrival).
Animal handling: Axial mammary fat pad implantation of 5×10^6 MCF7 cells/200 per mouse (17β-estradiol 0.36 mg 90-day pellet implanted day before).
Dosing: Oral (gavage), once a day (QD) for 3 days (QD×3). Vehicle: 2% Tween80/PEG400 (‘PEG/Tween’).
Sampling: Terminal sacrifice was ˜18 hrs after last dose; tumors were harvested, divided and flash frozen. ERα levels were determined by immunoblotting.
Cell Lysis: flash frozen tumors were removed from −80° C. storage and placed on dry ice. RIPA lysis buffer and Halt protease inhibitors were used at 400 μl per tumor sample. A steel ball (5 mm) was placed in each sample for tissue disruption. Samples were lysed with TissueLyzer at 24 Hz for 4 minutes. The homogenization was stopped half way through the process and the block flipped over for the duration of the process. Steel beads were pulled out of the tubes and the lysates were spun down at 21,000×g for 15 minutes at 4° C. Lysates were then measured for total protein concentration by BCA (per manufacturer's protocol).
Detection of proteins by immunoblot: lysates were mixed with sample buffer and reducing agent (per manufacturer's protocol). Samples were denatured at 95° C. for 5 minutes in thermal cycler. Samples were cooled and spun down (5000×g; 1 minute) prior to loading on gel. Gels were loaded with 10 μg total protein per lane. Samples were loaded on 4-15% Criterion Tris/Glycine gels and run for 25 minutes at 250 constant volts in 1×Tris/Glycine/SDS buffer. Protein was transferred from gels to nitrocellulose with Bio-Rad Turbo on default setting. All blots were rinsed with distilled water and blocked for 1 hour at RT in 5% BSA in TBS-T (TBS with 0.1% Tween) on rocker. The blots were cut so that beta-actin and ERα can be detected from the same lane/sample.
Blots were incubated with primary antibody in 5% BSA in TBST (0.1%) overnight at 4° C. on rocker:
Blot was washed with TBST (0.1%) three times for 5 minutes on rocker at RT. Secondary antibody was added, and blots incubated at RT on rocker for 1 hour (1:18,000 anti-rabbit-HRP in TBS-T). Blots were washed 3 times in TBST (0.1%) for 5 minutes at RT on the rocker. Signal was developed with Pierce WestFemto maximum sensitivity substrate for 5 minutes and blots imaged on BioRad ChemiDoc.
Sampling: Tumors were measured twice weekly. Terminal sacrifice was ˜18 hr after last dose; tumors were harvested, divided, and flash frozen. ERα levels were determined by immunoblotting.
At study termination, the tumors were removed from the mice, and ERα levels were determined by immunoblotting the tumor homogenates.
Sampling: tumors were measured twice weekly. Terminal sacrifice was ˜18 hr after last dose; tumors were harvested, divided, and flash frozen. ERα levels were determined by immunoblotting.

MCF7 xenograft = experiment: MCF7 orthotopic xenograft, combination with CDK4/6 inhibitor; format: in vivo, NOD/SCID mice
[1] = Preclinical pharmacokinetics, oral once daily; conditions: in vivo, total drug concentrations; for AUC(0-t): read-out: Mean AUC0-24
Source text: The pharmacokinetic results are shown below in Table 1.

[2] = Compound (I-c) 30 mg/kg oral QD x 28

O=C1CC[C@H](N2Cc3cc(N4CCN(CC5CCN(c6ccc([C@@H]7c8ccc(O)cc8CC[C@@H]7c7ccccc7)cc6)CC5)CC4)ccc3C2=O)C(=O)N1 [Compound (I-c), (3S)-3-[5-[4-[[1-[4-[(1R,2S)-6-hydroxy-2-phenyl-tetralin-1-yl]phenyl]-4-piperidyl]methyl]piperazin-1-yl]-1-oxo-isoindolin-2-yl]piperidine-2,6-dione]
EC50 (MCF7 cells): 10 nM
EC50 (T47D cells): 10 nM
reduction of tumor ERα levels vs vehicle (ERα; 10 mg/kg p.o. once daily x 3 days, ~18 h after last dose): up to 95%
reduction of tumor ERα levels vs vehicle (ERα; 3, 10 and 30 mg/kg daily oral, 28 days (all doses), at study termination): > 94% and > 90%
% ERα ↓ (ERα; 3 mg/kg): 95%
% ERα ↓ (ERα; 10 mg/kg): 97%
% ERα ↓ (ERα; 30 mg/kg): 94%
Day 28 Tumor volume (mean ± SD) (MCF7 xenograft; [2]): 170 ± 62 mm^3
TGI (% vehicle) (MCF7 xenograft; [2]): 105 % vehicle
tumor growth inhibition (TGI) (MCF7 xenograft; single agent 30 mg/kg oral QD x 28): 105%
Cmax ([1]; 3 mg/kg oral once daily): 84 ng/mL
AUC(0-t) ([1]; 3 mg/kg oral once daily): 658 ng·h/mL
Cmax ([1]; 10 mg/kg oral once daily): 312 ng/mL
AUC(0-t) ([1]; 10 mg/kg oral once daily): 2540 ng·h/mL
Cmax ([1]; 30 mg/kg oral, single dose): 962 ng/mL
AUC(0-t) ([1]; 30 mg/kg oral, single dose): 5720 ng·h/mL
